Source: ChEMBL document CHEMBL5257080, “Optimization of physicochemical properties of pyrrolidine GPR40 AgoPAMs results in a differentiated profile with improved pharmacokinetics and reduced off-target activities” (Bioorg Med Chem, 2023)
≈ marks a conversion by molar mass, not a printed value. Calls of active or inactive are those of the source. The calls are words filed in the database; no cut-off is given here.

Experiments:
Rattus norvegicus [1] = assay: Anti-hyperglycemic activity against Sprague-Dawley rat assessed as reduction in plasma glucose AUC at 0.3 mg/kg, po measured for 20 to 120 mins in presence of BMS-538305 by OGTT analysis; format: functional; design: scale not given: the % may be the effect or the level left; conditions: time 20-120 min
[2] = AUC (0 to 24 hrs) in rat at 12 mg/kg qd; format: ADME, organism-based; design: dose 12 mg/kg; conditions: in vivo
[3] = Tmax in rat at 12 mg/kg qd; format: ADME, organism-based; conditions: in vivo
Cytochrome P450 2C19 = Cytochrome P450 2C19 (Homo sapiens, UniProt P33261); assay: Inhibition of CYP2C19 in human liver microsomes; format: ADME, Microsome
Sequence of Cytochrome P450 2C19 (P33261 whole entry): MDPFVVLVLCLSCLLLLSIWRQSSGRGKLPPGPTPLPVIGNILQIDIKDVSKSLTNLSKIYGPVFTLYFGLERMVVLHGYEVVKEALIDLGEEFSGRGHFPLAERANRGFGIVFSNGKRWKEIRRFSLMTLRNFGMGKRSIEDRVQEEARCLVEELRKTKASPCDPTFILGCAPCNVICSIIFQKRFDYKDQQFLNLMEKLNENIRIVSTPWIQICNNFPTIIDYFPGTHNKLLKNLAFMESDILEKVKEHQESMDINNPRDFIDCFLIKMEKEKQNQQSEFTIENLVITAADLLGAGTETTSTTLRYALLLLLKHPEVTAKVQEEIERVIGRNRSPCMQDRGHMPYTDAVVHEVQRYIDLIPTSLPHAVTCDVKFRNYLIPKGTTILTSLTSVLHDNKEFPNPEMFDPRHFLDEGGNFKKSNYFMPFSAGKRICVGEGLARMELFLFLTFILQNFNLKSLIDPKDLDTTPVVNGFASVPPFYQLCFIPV

[4] = Toxicity in rat assessed as NOAEL at 100 mg/kg measured for 28 days; format: organism-based; conditions: in vivo, time 28 day
Cytochrome P450 2B6 = molecular target: T1, Cytochrome P450 2B6 (Homo sapiens, UniProt P20813); assay: Inhibition of CYP2B6 in human liver microsomes; format: ADME, Microsome
T1 sequence (P20813 whole entry): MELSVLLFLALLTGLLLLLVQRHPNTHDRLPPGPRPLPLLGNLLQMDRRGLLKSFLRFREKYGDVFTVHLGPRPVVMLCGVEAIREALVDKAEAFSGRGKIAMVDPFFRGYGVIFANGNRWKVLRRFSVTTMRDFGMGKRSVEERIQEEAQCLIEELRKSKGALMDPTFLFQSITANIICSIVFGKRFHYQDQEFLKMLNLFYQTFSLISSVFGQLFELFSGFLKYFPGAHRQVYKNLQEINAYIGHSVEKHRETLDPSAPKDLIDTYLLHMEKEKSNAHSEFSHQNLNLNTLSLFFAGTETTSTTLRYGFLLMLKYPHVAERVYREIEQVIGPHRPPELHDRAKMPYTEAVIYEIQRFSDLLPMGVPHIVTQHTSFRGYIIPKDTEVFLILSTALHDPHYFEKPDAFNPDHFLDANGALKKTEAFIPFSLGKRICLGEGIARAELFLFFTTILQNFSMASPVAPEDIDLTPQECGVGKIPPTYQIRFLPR

[5] = Volume of distribution at steady state in mouse at 3 mg/kg, iv; format: ADME, organism-based; conditions: in vivo, read-out: Vdss
Rattus norvegicus [6] = assay: Anti-hyperglycemic activity against Sprague-Dawley rat assessed as reduction in plasma glucose level at 3 mg/kg, po measured for 20 to 120 mins by OGTT analysis; format: functional, organism-based; conditions: time lower 20.0 min, time upper […]
[7] = Total AUC in mouse at 1 mg/kg, po; format: ADME, organism-based; design: dose 1 mg/kg, route po; conditions: in vivo
[8] = Plasma protein binding in mouse assessed as fraction unbound; format: ADME, cell-free
[9] = Cmax in rat at 60 mg/kg qd; format: ADME, organism-based; design: dose 60 mg/kg; conditions: in vivo
Cytochrome P450 2C8 = molecular target: T2, Cytochrome P450 2C8 (Homo sapiens, UniProt P10632); assay: Inhibition of CYP2C8 in human liver microsomes; format: ADME, Microsome
T2 sequence (P10632 whole entry): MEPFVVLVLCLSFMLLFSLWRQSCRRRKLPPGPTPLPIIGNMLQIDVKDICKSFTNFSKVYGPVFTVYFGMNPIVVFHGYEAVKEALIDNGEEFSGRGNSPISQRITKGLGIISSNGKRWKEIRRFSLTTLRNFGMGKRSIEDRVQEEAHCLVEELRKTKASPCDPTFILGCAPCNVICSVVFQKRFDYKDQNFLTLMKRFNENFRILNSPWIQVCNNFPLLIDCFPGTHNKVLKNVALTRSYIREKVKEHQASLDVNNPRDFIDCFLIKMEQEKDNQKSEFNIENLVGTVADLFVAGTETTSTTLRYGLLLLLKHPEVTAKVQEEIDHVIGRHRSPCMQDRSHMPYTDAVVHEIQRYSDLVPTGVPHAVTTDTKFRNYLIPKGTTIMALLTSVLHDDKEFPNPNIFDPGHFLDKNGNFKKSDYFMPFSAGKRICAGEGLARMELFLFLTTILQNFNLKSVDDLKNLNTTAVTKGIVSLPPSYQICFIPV

[10] = molecular target: T3, Free fatty acid receptor 1 (Homo sapiens, UniProt O14842); assay: Positive allosteric modulation of human GPR40 expressed in HEK293 cells assessed as cAMP accumulation; format: cell-based
T3 sequence (O14842 whole entry): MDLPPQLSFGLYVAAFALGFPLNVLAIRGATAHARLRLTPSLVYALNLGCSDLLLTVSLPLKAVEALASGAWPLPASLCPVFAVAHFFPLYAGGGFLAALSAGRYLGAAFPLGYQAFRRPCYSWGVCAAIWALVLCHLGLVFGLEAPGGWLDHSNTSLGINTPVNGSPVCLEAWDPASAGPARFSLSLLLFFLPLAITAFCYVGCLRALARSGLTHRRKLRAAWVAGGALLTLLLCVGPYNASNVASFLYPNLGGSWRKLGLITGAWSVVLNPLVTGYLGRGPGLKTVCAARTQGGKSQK

[11] = AUC (0-7hrs) in mouse at 1 mg/kg; format: ADME, organism-based; design: dose 1 mg/kg; conditions: in vivo
[12] = Oral bioavailability in rat at 1 mg/kg; format: ADME, organism-based; conditions: in vivo
[13] = Solubility of the compound in FeSSIF at pH 5; format: ADME
[14] = Cmax in mouse at 1 mg/kg; format: ADME, organism-based; design: dose 1 mg/kg; conditions: in vivo
[15] = Clearance in mouse at 3 mg/kg, iv; format: ADME, organism-based; conditions: in vivo
[16] = Plasma protein binding in human assessed as fraction unbound; format: ADME, cell-free
Cytochrome P450 2C9 = Cytochrome P450 2C9 (Homo sapiens, UniProt P11712); assay: Inhibition of CYP2C9 in human liver microsomes; format: ADME, Microsome
Sequence of Cytochrome P450 2C9 (P11712 whole entry): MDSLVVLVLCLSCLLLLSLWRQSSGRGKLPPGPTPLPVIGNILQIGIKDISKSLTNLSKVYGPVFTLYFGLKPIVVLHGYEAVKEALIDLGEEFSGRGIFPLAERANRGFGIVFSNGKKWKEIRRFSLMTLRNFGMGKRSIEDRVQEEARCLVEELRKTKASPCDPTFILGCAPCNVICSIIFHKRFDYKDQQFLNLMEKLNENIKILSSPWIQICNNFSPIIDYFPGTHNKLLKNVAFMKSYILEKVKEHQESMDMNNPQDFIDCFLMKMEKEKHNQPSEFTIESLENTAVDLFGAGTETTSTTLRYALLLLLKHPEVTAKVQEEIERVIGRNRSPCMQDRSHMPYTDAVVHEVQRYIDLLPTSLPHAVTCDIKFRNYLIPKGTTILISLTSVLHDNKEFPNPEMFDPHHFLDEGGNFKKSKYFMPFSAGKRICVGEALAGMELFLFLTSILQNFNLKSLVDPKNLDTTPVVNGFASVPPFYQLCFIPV

[17] = Lipophilicity, logD of compound; format: physicochemical; conditions: octanol/water
Mus musculus [18] = species: Mus musculus; assay: Anti-hyperglycemic activity in GPR40 knockout mouse assessed as reduction in plasma glucose level by OGTT analysis; format: functional, organism-based
[19] = Cmax in rat at 300 mg/kg qd; format: ADME, organism-based; design: dose 300 mg/kg; conditions: in vivo
[20] = AUC (0 to 24 hrs) in rat at 60 mg/kg qd; format: ADME, organism-based; design: dose 60 mg/kg; conditions: in vivo
[21] = Clearance in rat at 3 mg/kg, iv; format: ADME, organism-based; conditions: in vivo
[22] = Cmax in mouse at 1 mg/kg, po; format: ADME, organism-based; design: dose 1 mg/kg, route po; conditions: in vivo
[23] = Toxicity in rat assessed as vacuolation in pancrease at 100 mg/kg measured for 28 days; format: organism-based; conditions: in vivo, time 28 day
Mus musculus [24] = species: Mus musculus; assay: Anti-hyperglycemic activity in wild type mouse assessed as reduction in plasma glucose level by OGTT analysis; format: functional, organism-based
[25] = Toxicity in rat assessed as NOAEL by measuring AUC (0 to 24 hrs) measured for 28 days; conditions: in vivo, time 28 day
[26] = Solubility in phosphate buffer at pH 6.5; format: physicochemical
[27] = AUC (0 to 24 hrs) in rat at 100 mg/kg, po qd; format: ADME, organism-based; design: dose 100 mg/kg, route po; conditions: in vivo
[28] = Half life in rat at 3 mg/kg, iv; format: ADME, organism-based; conditions: in vivo
[29] = Tmax in rat at 60 mg/kg qd; format: ADME, organism-based; conditions: in vivo
[30] = Cmax in rat at 12 mg/kg qd; format: ADME, organism-based; design: dose 12 mg/kg; conditions: in vivo
[31] = Half life in mouse at 3 mg/kg, iv; format: ADME, organism-based; conditions: in vivo
[32] = molecular target: T3, Free fatty acid receptor 1; assay: Positive allosteric modulation of human GPR40 by calcium based FLIPR analysis
[33] = Oral bioavailability in mouse at 1 mg/kg; format: ADME, organism-based; conditions: in vivo
[34] = Tmax in rat at 300 mg/kg qd; format: ADME, organism-based; conditions: in vivo
Rattus norvegicus [35] = assay: Hyperglycemic activity in Sprague-Dawley rat assessed as effect on blood glucose level at 30 to 100 mg/kg, qd by glucometer; format: functional, organism-based; conditions: dose 30-100 mg/kg
Cytochrome P450 3A4 = Cytochrome P450 3A4 (Homo sapiens, UniProt P08684); assay: Inhibition of CYP3A4 in human liver microsomes; format: ADME, Microsome
Sequence of Cytochrome P450 3A4 (P08684 whole entry): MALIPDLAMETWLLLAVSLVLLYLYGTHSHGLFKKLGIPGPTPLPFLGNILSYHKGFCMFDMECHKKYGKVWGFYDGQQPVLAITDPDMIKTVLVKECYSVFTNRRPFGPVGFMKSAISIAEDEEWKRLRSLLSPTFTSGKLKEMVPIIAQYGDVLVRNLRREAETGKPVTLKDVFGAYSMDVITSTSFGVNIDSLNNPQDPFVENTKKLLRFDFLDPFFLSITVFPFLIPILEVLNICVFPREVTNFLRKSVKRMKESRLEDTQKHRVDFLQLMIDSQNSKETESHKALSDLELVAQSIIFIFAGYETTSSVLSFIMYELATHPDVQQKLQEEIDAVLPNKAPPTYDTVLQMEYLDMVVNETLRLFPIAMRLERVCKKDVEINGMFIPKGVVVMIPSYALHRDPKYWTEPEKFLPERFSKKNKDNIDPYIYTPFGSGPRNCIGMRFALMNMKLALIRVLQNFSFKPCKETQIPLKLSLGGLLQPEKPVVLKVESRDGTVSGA

[36] = Solubility of the compound in FaSSIF at pH 6.5; format: ADME
Rattus norvegicus [37] = assay: Anti-hyperglycemic activity against Sprague-Dawley rat assessed as reduction in plasma glucose AUC at 0.3 mg/kg, po measured at 3 hrs in presence of BMS-538305 by OGTT analysis; format: functional; design: scale not given: the % may be the effect or the level left
[38] = Toxicity in rat assessed as reduction in cell number at 100 mg/kg measured for 28 days; format: organism-based; conditions: in vivo, time 28 day
[39] = molecular target: Free fatty acid receptor 1 (Mus musculus, UniProt Q76JU9); assay: Positive allosteric modulation of mouse GPR40
Sequence of Free fatty acid receptor 1 (Mus musculus, UniProt Q76JU9) (Q76JU9 whole entry): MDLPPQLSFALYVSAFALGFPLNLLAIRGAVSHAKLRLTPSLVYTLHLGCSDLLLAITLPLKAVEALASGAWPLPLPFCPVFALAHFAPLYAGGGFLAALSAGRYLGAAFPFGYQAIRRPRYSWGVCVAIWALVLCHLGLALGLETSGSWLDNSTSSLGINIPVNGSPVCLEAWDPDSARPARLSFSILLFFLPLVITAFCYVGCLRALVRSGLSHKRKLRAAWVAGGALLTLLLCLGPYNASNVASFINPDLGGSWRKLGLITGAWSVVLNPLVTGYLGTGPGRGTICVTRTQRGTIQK

[40] = Cmax in rat at 1 mg/kg, po; format: ADME, organism-based; design: dose 1 mg/kg, route po; conditions: in vivo
[41] = Volume of distribution at steady state in rat at 3 mg/kg, iv; format: ADME, organism-based; conditions: in vivo, read-out: Vdss
Cytochrome P450 2D6 = Cytochrome P450 2D6 (Homo sapiens, UniProt P10635); assay: Inhibition of CYP2D6 in human liver microsomes; format: ADME, Microsome
Sequence of Cytochrome P450 2D6 (P10635 whole entry): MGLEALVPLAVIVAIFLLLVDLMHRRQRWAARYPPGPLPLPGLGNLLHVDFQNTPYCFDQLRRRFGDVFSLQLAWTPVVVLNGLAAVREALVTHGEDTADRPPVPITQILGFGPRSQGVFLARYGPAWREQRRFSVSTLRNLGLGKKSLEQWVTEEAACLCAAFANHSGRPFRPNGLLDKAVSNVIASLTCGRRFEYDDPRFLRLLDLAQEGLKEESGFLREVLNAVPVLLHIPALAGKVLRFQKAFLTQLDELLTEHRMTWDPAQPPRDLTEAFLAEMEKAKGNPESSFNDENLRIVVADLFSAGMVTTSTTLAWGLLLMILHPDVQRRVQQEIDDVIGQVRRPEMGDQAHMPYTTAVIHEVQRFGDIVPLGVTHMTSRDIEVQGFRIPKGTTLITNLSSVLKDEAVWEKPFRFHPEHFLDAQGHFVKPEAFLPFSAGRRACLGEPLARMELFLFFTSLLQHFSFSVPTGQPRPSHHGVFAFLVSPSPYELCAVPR

[42] = Toxicity in rat assessed as reduction in cell size at 100 mg/kg measured for 28 days; format: organism-based; conditions: in vivo, time 28 day
[43] = Total AUC in rat at 1 mg/kg, po; format: ADME, organism-based; design: dose 1 mg/kg, route po; conditions: in vivo
[44] = Metabolic stability in rat liver microsome assessed as parent compound remaining after 10 mins; format: ADME; conditions: liver microsomes, read-out: Stability
[45] = Metabolic stability in human liver microsome assessed as parent compound remaining after 10 mins; format: ADME; conditions: liver microsomes, read-out: Stability
[46] = Metabolic stability in mouse liver microsome assessed as parent compound remaining after 10 mins; format: ADME; conditions: liver microsomes, read-out: Stability
[47] = Solubility of the compound in FeSSIF at pH 6.5; format: ADME
[48] = Permeability of compound across apical to basolateral side in dog MDCK cells; format: ADME, cell-based, Canis lupus familiaris; conditions: read-out: permeability
Rattus norvegicus [49] = assay: Anti-hyperglycemic activity against Sprague-Dawley rat assessed as reduction in plasma glucose AUC at 0.3 mg/kg, po measured for 20 to 120 mins by OGTT analysis; format: functional, organism-based; conditions: time lower 20.0 min, time upper […]
[50] = AUC (0 to 24 hrs) in rat at 300 mg/kg qd; format: ADME, organism-based; design: dose 300 mg/kg; conditions: in vivo

With COCCCO[C@H]1CN(c2ccc(O[C@@H]3CCN(c4cc(OC)ncc4Cl)C[C@H]3C)cc2)[C@@H](CC(=O)O)[C@@H]1C the Activity (Rattus norvegicus [1]) was 26%, the AUC [2] was 84 µM·h and the Tmax [3] was 2 h. The IC50 (Cytochrome P450 2C19) was 40 µM, the Activity [4] was “Non-Toxic” and the IC50 (Cytochrome P450 2B6) was 29 µM. For the same molecule, the Vd [5] was 1.4 L/kg, the Activity (Rattus norvegicus [6]) was “Active” and the AUC [7] was 4.4 µM·h. It also gave a Fu [8] of 0.9%, a Cmax [9] of 49 µM and an IC50 (Cytochrome P450 2C8) of 8.3 µM. The EC50 [10] was 1.8 µM, the AUC(0-t) [11] was 4.4 µM·h and the bioavailability [12] was 100%. The solubility [13] was 383 µg/mL (≈ 681 µM), the Cmax [14] was 2.8 µM and the clearance [15] was 7.9 mL/min/kg. For the same molecule, the Fu [16] was under 0.1%, the IC50 (Cytochrome P450 2C9) was 34 µM and the logD [17] was 1.32. For the same molecule, the Activity (Mus musculus [18]) was “inactive”, the Cmax [19] was 151 µM and the AUC [20] was 534 µM·h. The clearance [21] was 5.9 mL/min/kg, the Cmax [22] was 2.8 µM and the Activity [23] was “Toxic”. The Activity (Mus musculus [24]) was “Active”, the AUC at […] [25] was 53 µM·h and the solubility [26] was 28 µg/mL (≈ 49.8 µM). It also gave an AUC [27] of 1480 µM·h, a half-life [28] of 3.6 h and a Tmax [29] of 2 h. It also gave a Cmax [30] of 11 µM, a half-life [31] of 3.4 h and an EC50 [32] of 0.049 µM. For the same molecule, the bioavailability [33] was 100%, the Tmax [34] was 2 h and the Activity (Rattus norvegicus [35]) was “inactive”. It also gave an IC50 (Cytochrome P450 3A4) of 40 µM, a solubility [36] of 239 µg/mL (≈ 425 µM) and an Activity (Rattus norvegicus [37]) of 148%. The Activity [38] was “Non-Toxic”, the EC50 [39] was 0.014 µM and the Cmax [40] was 1.6 µM. The Vd [41] was 1.1 L/kg, the IC50 (Cytochrome P450 2D6) was 40 µM and the Activity [42] was “Non-Toxic”. It also gave an AUC [43] of 2.2 µM·h, a remaining at 10 min [44] of 77% and a remaining at 10 min [45] of 100%. For the same molecule, the remaining at 10 min [46] was 79%, the solubility [47] was 1300 µg/mL (≈ 2320 µM) and the Papp A→B [48] was 24.3 ×10⁻⁶ cm/s. The Activity (Rattus norvegicus [49]) was “inactive” and the AUC [50] was 3150 µM·h.
